In patent publication US6525001B1, “Substituted pyrimidine and pyridine herbicides” (Mid-American Commercialization Corporation, priority 1997, dated 2003):

Tests used:
Test in all cases: Test D
Type in all cases: in vivo
[1] = system: annual bluegrass (Poa annua); set-up: key: 0 is no effect; 100 is complete control; conditions: PREEMERGENCE
[2] = system: chickweed (Stellaria media); conditions: PREEMERGENCE
[3] = system: deadnettle (Lamium amplexicaule); conditions: PREEMERGENCE
[4] = system: littleseed canarygrass (Phalaris minor); conditions: PREEMERGENCE
[5] = system: Russian thistle (Salsola kali); conditions: PREEMERGENCE
[6] = system: scentless chamomile (Matricaria inodora); conditions: PREEMERGENCE
[7] = system: sunflower (Helianthus annuus); set-up: key: 0 is no effect; 100 is complete control; conditions: PREEMERGENCE
[8] = system: winter barley (Hordeum vulgare); conditions: PREEMERGENCE
[9] = system: blackgrass (Alopecurus myosuroides); conditions: POSTEMERGENCE
Description: (§1) Compounds evaluated in this test were formulated in a non-phytotoxic solvent mixture which included a surfactant and applied to plants that were in the 1- to 4-leaf stage (postemergence application). A mixture of sandy loam soil and greenhouse potting mix in a 60:40 ratio was used for the postemergence test.
(§2) Plantings of these crops and weed species were adjusted to produce plants of appropriate size for the postemergence test. All plant species were grown using normal greenhouse practices. Crop and weed species include alfalfa (Medicago sativa), annual bluegrass (Poa annua), blackgrass (Alopecurus myosuroides), black nightshade (Solanum nigra), chickweed (Stellaria media), common poppy (Papaver rhoeas), deadnettle (Lamium amplexicaule), downy brome (Bromus tectorum), field violet (Viola arvensis), galium 2 (Galium aparine), green foxtail (Setaria viridis), Italian ryegrass (Lolium multiflorum), jointed goatgrass (Aegilops cylindrica), kochia (Kochia scoparia), lambsquarters (Chenopodium album), lentil (Lens culinaris), littleseed canarygrass (Phalaris minor), pea (Pisum sativum), potato (Solanum tuberosum), rape (Brassica napus), redroot pigweed (Amaranthus retroflexus), Russian thistle (Salsola kali), scentless chamomile (Matricaria inodora), sorghum (Sorghum vulgare), spring barley (Hordeum vulgare), sugar beet (Beta vulgaris), sunflower (Helianthus annuus), ivyleaf speedwell (Veronica hederaefolia), spring wheat (Triticum aestivum), winter wheat (Triticum aestivum), wild buckwheat (Polygonum convolvulus), wild mustard (Sinapis arvensis), wild oat (Avena fatua), windgrass (Apera spica-venti) and winter barley (Hordeum vulgare).
(§3) Treated plants and untreated controls were maintained in a greenhouse for approximately 21 to 28 days, after which all treated plants were compared to untreated controls and visually evaluated. Plant response ratings, summarized in Table D, are based upon a 0 to 100 scale where 0 is no effect and 100 is complete control. A dash response (−) means no test result.

[10] = system: downy brome (Bromus tectorum); conditions: POSTEMERGENCE
Description: as §1, §2, §3

[11] = system: jointed goatgrass (Aegilops cylindrica); conditions: POSTEMERGENCE
Description: as §1, §2, §3

[12] = system: spring wheat (Triticum aestivum); conditions: POSTEMERGENCE
Description: as §1, §2, §3

[13] = system: sunflower (Helianthus annuus); conditions: POSTEMERGENCE
Description: as §1, §2, §3

[14] = system: wild oat (Avena fatua); conditions: POSTEMERGENCE
Description: as §1, §2, §3

[15] = system: winter barley (Hordeum vulgare); conditions: POSTEMERGENCE
Description: as §1, §2, §3

[16] = system: winter wheat (Triticum aestivum); conditions: POSTEMERGENCE
Description: as §1, §2, §3

[17] = system: black nightshade (Solanum nigra); set-up: key: 0 is no effect; 100 is complete control; conditions: POSTEMERGENCE
Description: as §1, §2, §3

[18] = system: chickweed (Stellaria media); set-up: key: 0 is no effect; 100 is complete control; conditions: POSTEMERGENCE
Description: as §1, §2, §3

[19] = system: common poppy (Papaver rhoeas); set-up: key: 0 is no effect; 100 is complete control; conditions: POSTEMERGENCE
Description: as §1, §2, §3

[20] = system: deadnettle (Lamium amplexicaule); set-up: key: 0 is no effect; 100 is complete control; conditions: POSTEMERGENCE
Description: as §1, §2, §3

[21] = system: rape (Brassica napus); set-up: key: 0 is no effect; 100 is complete control; conditions: POSTEMERGENCE
Description: as §1, §2, §3

[22] = system: sugar beet (Beta vulgaris); set-up: key: 0 is no effect; 100 is complete control; conditions: POSTEMERGENCE
Description: as §1, §2, §3

[23] = system: wild mustard (Sinapis arvensis); set-up: key: 0 is no effect; 100 is complete control; conditions: POSTEMERGENCE
Description: as §1, §2, §3

Cc1cnc(-n2cnc(C(F)(F)F)n2)nc1Cn1ccc(C(F)(F)F)n1 [Compound 51]
Plant response rating, Annual bluegras ([1]; Rate 31 g/ha): 85
Plant response rating, Annual bluegras ([1]; Rate 62 g/ha): 100
Plant response rating, Chickweed ([2]; Rate 31 g/ha): 80
Plant response rating, Chickweed ([2]; Rate 62 g/ha): 90
Plant response rating, Deadnettle ([3]; Rate 31 g/ha): 80
Plant response rating, Deadnettle ([3]; Rate 62 g/ha): 80
Plant response rating, LS canarygrass ([4]; Rate 31 g/ha): 80
Plant response rating, LS canarygrass ([4]; Rate 62 g/ha): 90
Plant response rating, Russian thistle ([5]; Rate 31 g/ha): 60
Plant response rating, Russian thistle ([5]; Rate 62 g/ha): 70
Plant response rating, Scentless chamo ([6]; Rate 31 g/ha): 65
Plant response rating, Scentless chamo ([6]; Rate 62 g/ha): 70
Plant response rating, Sunflower ([7]; Rate 31 g/ha): 40
Plant response rating, Sunflower ([7]; Rate 62 g/ha): 40
Plant response rating, Barley (winter) ([8]; Rate 31 g/ha): 50
Plant response rating, Barley (winter) ([8]; Rate 62 g/ha): 90

Cc1cnc(-n2ccc(C(F)(F)F)n2)nc1Cn1ccc(C(F)(F)F)n1 [Compound 52]
Plant response rating, Blackgrass ([9]; Rate 16 g/ha): 10
Plant response rating, Blackgrass ([9]; Rate 31 g/ha): 10
Plant response rating, Blackgrass ([9]; Rate 62 g/ha): 10
Plant response rating, Blackgrass ([9]; Rate 125 g/ha): 10
Plant response rating, Downy brome ([10]; Rate 16 g/ha): 10
Plant response rating, Downy brome ([10]; Rate 31 g/ha): 20
Plant response rating, Downy brome ([10]; Rate 62 g/ha): 20
Plant response rating, Downy brome ([10]; Rate 125 g/ha): 20
Plant response rating, Jointed goatgra ([11]; Rate 16 g/ha): 10
Plant response rating, Jointed goatgra ([11]; Rate 31 g/ha): 10
Plant response rating, Jointed goatgra ([11]; Rate 62 g/ha): 10
Plant response rating, Jointed goatgra ([11]; Rate 125 g/ha): 10
Plant response rating, Spring Wheat ([12]; Rate 16 g/ha): 10
Plant response rating, Spring Wheat ([12]; Rate 31 g/ha): 10
Plant response rating, Spring Wheat ([12]; Rate 62 g/ha): 10
Plant response rating, Spring Wheat ([12]; Rate 125 g/ha): 10
Plant response rating, Sunflower ([13]; Rate 16 g/ha): 40
Plant response rating, Sunflower ([13]; Rate 31 g/ha): 20
Plant response rating, Sunflower ([13]; Rate 62 g/ha): 50
Plant response rating, Sunflower ([13]; Rate 125 g/ha): 70
Plant response rating, Wild oat ([14]; Rate 16 g/ha): 10
Plant response rating, Wild oat ([14]; Rate 31 g/ha): 10
Plant response rating, Wild oat ([14]; Rate 62 g/ha): 10
Plant response rating, Wild oat ([14]; Rate 125 g/ha): 10
Plant response rating, Barley (winter) ([15]; Rate 16 g/ha): 10
Plant response rating, Barley (winter) ([15]; Rate 31 g/ha): 10
Plant response rating, Barley (winter) ([15]; Rate 62 g/ha): 10
Plant response rating, Barley (winter) ([15]; Rate 125 g/ha): 10
Plant response rating, Wheat (winter) ([16]; Rate 16 g/ha): 10
Plant response rating, Wheat (winter) ([16]; Rate 31 g/ha): 10
Plant response rating, Wheat (winter) ([16]; Rate 62 g/ha): 10
Plant response rating, Wheat (winter) ([16]; Rate 125 g/ha): 10
Plant response rating, Blk nightshade ([17]; Rate 16 g/ha): 55
Plant response rating, Blk nightshade ([17]; Rate 31 g/ha): 60
Plant response rating, Blk nightshade ([17]; Rate 62 g/ha): 65
Plant response rating, Blk nightshade ([17]; Rate 125 g/ha): 65
Plant response rating, Chickweed ([18]; Rate 16 g/ha): 30
Plant response rating, Chickweed ([18]; Rate 31 g/ha): 50
Plant response rating, Chickweed ([18]; Rate 62 g/ha): 70
Plant response rating, Chickweed ([18]; Rate 125 g/ha): 80
Plant response rating, Common poppy ([19]; Rate 16 g/ha): 60
Plant response rating, Common poppy ([19]; Rate 31 g/ha): 100
Plant response rating, Common poppy ([19]; Rate 62 g/ha): 100
Plant response rating, Common poppy ([19]; Rate 125 g/ha): 100
Plant response rating, Deadnettle ([20]; Rate 16 g/ha): 45
Plant response rating, Deadnettle ([20]; Rate 31 g/ha): 100
Plant response rating, Deadnettle ([20]; Rate 62 g/ha): 100
Plant response rating, Deadnettle ([20]; Rate 125 g/ha): 98
Plant response rating, Rape ([21]; Rate 16 g/ha): 65
Plant response rating, Rape ([21]; Rate 31 g/ha): 65
Plant response rating, Rape ([21]; Rate 62 g/ha): 98
Plant response rating, Rape ([21]; Rate 125 g/ha): 85
Plant response rating, Sugar beet ([22]; Rate 16 g/ha): 100
Plant response rating, Sugar beet ([22]; Rate 31 g/ha): 100
Plant response rating, Sugar beet ([22]; Rate 62 g/ha): 100
Plant response rating, Sugar beet ([22]; Rate 125 g/ha): 100
Plant response rating, Wild mustard ([23]; Rate 16 g/ha): 60
Plant response rating, Wild mustard ([23]; Rate 31 g/ha): 70
Plant response rating, Wild mustard ([23]; Rate 62 g/ha): 98
Plant response rating, Wild mustard ([23]; Rate 125 g/ha): 100
Plant response rating, Annual bluegras ([1]; Rate 31 g/ha): 50
Plant response rating, Annual bluegras ([1]; Rate 62 g/ha): 100
Plant response rating, Annual bluegras ([1]; Rate 125 g/ha): 100
Plant response rating, Chickweed ([2]; Rate 31 g/ha): 30
Plant response rating, Chickweed ([2]; Rate 62 g/ha): 80
Plant response rating, Chickweed ([2]; Rate 125 g/ha): 85
Plant response rating, Deadnettle ([3]; Rate 31 g/ha): 50
Plant response rating, Deadnettle ([3]; Rate 62 g/ha): 70
Plant response rating, Deadnettle ([3]; Rate 125 g/ha): 90
Plant response rating, LS canarygrass ([4]; Rate 31 g/ha): 30
Plant response rating, LS canarygrass ([4]; Rate 62 g/ha): 60
Plant response rating, LS canarygrass ([4]; Rate 125 g/ha): 90
Plant response rating, Russian thistle ([5]; Rate 31 g/ha): 30
Plant response rating, Russian thistle ([5]; Rate 62 g/ha): 85
Plant response rating, Russian thistle ([5]; Rate 125 g/ha): 85
Plant response rating, Sunflower ([7]; Rate 31 g/ha): 0
Plant response rating, Sunflower ([7]; Rate 62 g/ha): 0
Plant response rating, Sunflower ([7]; Rate 125 g/ha): 0
Plant response rating, Barley (winter) ([8]; Rate 31 g/ha): 50
Plant response rating, Barley (winter) ([8]; Rate 62 g/ha): 50
Plant response rating, Barley (winter) ([8]; Rate 125 g/ha): 60
